Assay results published in paper PMC10388327, “Dual Piperidine-Based Histamine H3 and Sigma-1 Receptor Ligands in the Treatment of Nociceptive and Neuropathic Pain” (Journal of Medicinal Chemistry, 2023).
Where a name gives a salt, the structure may show the parent alone.

What was measured:
[1] = test system: CCI-exposed mice; assay: CCI of the sciatic nerve, tail flick test; assay type: in vivo, male albino Swiss CD-1 mice
Method: (§1) Behavioral assessment of 12 was performed 14 days after the sciatic nerve injury. Mice were randomly assigned to four treatment groups: vehicle-treated (i.p.) and 12-treated (5, 10, and 15 mg/kg, i.p.). Baseline measurements (basal) for all tests were performed before compound injections, and the results are presented as percentages of the maximal possible effect (% MPE). We observed a significant effect of the tested compound in the von Frey test at all tested time points (30 min: F(3, 26) = 12.38, p < 0,0001; 90 min: F(3, 26) = 12.65, p < 0.0001; 180 min: F(3, 26) = 6.464, p = 0.0020). […] We also observed a significant effect of treatment on the contralateral paw 90 min after injection (F(3, 26) = 5.741, p = 0.0037).
The model of chronic constriction injury (CCI) to the sciatic nerve was established according to Bennett and Xie.[94] The surgical method was performed under isoflurate anesthesia (2% isoflurane in 100% oxygen with a flow of 1.5 L/min).[95] […]
Tail flick latency was measured on the dorsal part of the tail at two-thirds of its length by applying a focused beam of light (thermal stimulus). The time interval between onset of the thermal stimulus and withdrawal of the tail from the beam was recorded; the cutoff latency was 9 s to prevent tissue damage.

[2] = test system: CCI-exposed mice; assay: CCI of the sciatic nerve, cold plate test; assay type: in vivo, male albino Swiss CD-1 mice
Method: as §1
The model of chronic constriction injury (CCI) to the sciatic nerve was established according to Bennett and Xie.[94] The surgical method was performed under isoflurate anesthesia (2% isoflurane in 100% oxygen with a flow of 1.5 L/min).[95] Below the right hipbone, a small incision was performed, and three ligatures (4/0 silk) around the sciatic nerve were made (with 1 mm spacing) until a brief twitch in the respective hind limb was observed. All mice that underwent the CCI procedure developed hypersensitivity to mechanical and thermal stimuli. Behavioral tests were performed at day 14 after injury. Compound 12 was dissolved in 10% DMSO/10% (2-hydroxypropyl)-β-cyclodextrin/water and administered i.p. at doses 5, 10, and 15 mg/kg (injection volume 10 mL/kg of body weight). The control group received the vehicle (10% DMSO/10% (2-hydroxypropyl)-β-cyclodextrin/water).
Behavioral experiments were performed between 8:00 a.m. and 2:00 p.m. Across the experiments, we compared vehicle-treated mice with 12-treated animals. […]
Sensitivity to noxious thermal stimuli was assessed with the cold plate test (Cold/Hot Plate Analgesia Meter, Columbus Instruments) as previously described.[95] […] The mice were placed on the cold plate, and the time until lifting of the injured paw was recorded.

[3] = target: T1, human histamine H2 receptor (hH2R) (Homo sapiens, UniProt P25021); assay: hH2R radioligand binding ([3H]UR-DE257); conditions: HEK293T cells; n = 3, triplicate
T1 construct: SP (signal peptide) (N); FLAG (N); expressed in transfected cells
T1 sequence (P25021 whole entry): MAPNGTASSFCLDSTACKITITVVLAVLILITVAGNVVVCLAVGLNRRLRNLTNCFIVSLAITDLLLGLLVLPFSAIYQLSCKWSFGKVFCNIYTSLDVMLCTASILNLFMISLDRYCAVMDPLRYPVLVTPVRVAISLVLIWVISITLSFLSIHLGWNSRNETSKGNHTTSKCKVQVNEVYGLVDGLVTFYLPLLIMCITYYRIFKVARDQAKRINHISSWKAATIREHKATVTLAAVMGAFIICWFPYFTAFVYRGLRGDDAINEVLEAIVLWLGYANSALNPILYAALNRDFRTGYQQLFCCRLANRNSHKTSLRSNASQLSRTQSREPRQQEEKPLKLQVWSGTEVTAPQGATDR
Method: To check the selectivity profile of our lead structures, radioligand binding studies at other histamine receptor subtypes were carried out. […] Obtained results clearly indicate the high selectivity of the tested derivatives toward human H3R (Table 3).
Compounds (as oxalate salts) were tested in H3R in vitro binding studies using the methods described previously.[21]−[23] […] Radioligand binding experiments at the H1R, H2R, and H4R were performed as previously described in Rosier et al.[65] and Bartole et al.[66] […] Data represent mean values ± CI from three independent experiments, each performed in triplicate. The normalized competition binding curves were then fitted with a four-parameter logistic fit yielding IC50 values using the Prism 8.4.3 software (GraphPad, San Diego, CA). The Ki values were estimated from the Cheng–Prusoff equation.[69]

[4] = target: T2, human recombinant histamine H3R (Homo sapiens, UniProt Q9Y5N1); assay: hH3R radioligand binding ([3H]Nα-methylhistamine depletion assay); conditions: read-out: hH3R Ki [nM] x̄ [CI 95%]; mean [CI 95%]; HEK-293 cells
T2 construct: expressed in transfected cells
T2 sequence (Q9Y5N1 whole entry): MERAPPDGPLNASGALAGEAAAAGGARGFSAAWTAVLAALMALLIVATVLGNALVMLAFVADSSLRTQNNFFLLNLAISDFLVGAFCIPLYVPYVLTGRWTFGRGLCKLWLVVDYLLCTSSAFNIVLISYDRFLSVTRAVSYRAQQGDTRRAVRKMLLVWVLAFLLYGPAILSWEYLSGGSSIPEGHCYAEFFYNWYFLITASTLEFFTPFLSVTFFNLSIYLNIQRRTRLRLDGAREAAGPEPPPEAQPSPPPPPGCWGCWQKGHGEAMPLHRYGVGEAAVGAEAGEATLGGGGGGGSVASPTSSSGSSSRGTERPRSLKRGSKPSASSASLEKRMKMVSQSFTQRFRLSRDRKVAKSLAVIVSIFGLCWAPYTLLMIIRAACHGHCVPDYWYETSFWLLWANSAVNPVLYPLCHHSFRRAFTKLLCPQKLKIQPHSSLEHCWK

[5] = serum metabolic stability

N#Cc1ccc(-c2ccc(OCCCN3CCC(c4ccncc4)CC3)cc2)cc1 [Compound 12, 4′-(3-(4-(Pyridin-4-yl)piperidin-1-yl)propoxy)-[1,1′-biphenyl]-4-carbonitrile Oxalate]
analgesic effect, tail flick test ([1]; 100 and 190 min after i.p. injection): only the 10 mg/kg dose had significant analgesic effects | analgesic effect, tail flick test ([1]; 40 min after i.p. injection): significant analgesic action of 12 at 40 min (for doses 5 (p = 0.021) and 10 mg/kg (p < 0.0001)) | analgesic effect, cold plate test ([2]; 35 min after i.p. injection, 5, 10, 15 mg/kg): analgesic effects of 12 single injection were observed at 35 min for all tested doses | analgesic effect, cold plate test ([2]; 95 min after i.p. injection, 5, 10, 15 mg/kg): antihyperalgesic effect was also observed 95 min after injection | analgesic effect, cold plate test ([2]; 185 min after i.p. injection): significant only for doses 5 (p = 0.0482) and 10 mg/kg (p < 0.0001) | Ki [3]: > 10000 nM | Ki [4]: 7.7 nM | serum stability assessment [5]: moderately stable ligand | half-life at 24 h ([5]; serum (made from plasma by clotting with calcium chloride)): 7.7 ± 1.4 h
